# Laboratory results from patent US7625841B2, “Substituted thiene-3-ylsulphonylamino(thio)carbonyltriazolin(ethi)ones” (Bayer CropScience AG, priority 2001, dated 2009).
# What was measured:
# Type in all cases: in vivo
# Amaranthus = experiment: Pre-emergence test/greenhouse; conditions: greenhouse, application rate 15 gai/ha, rated after three weeks, 0%=no effect, 100%=total destruction
# Experimental: (§1) • Solvent: 5 parts by weight of acetone • Emulsifier: 1 part by weight of alkylaryl polyglycol ether
# (§2) To produce a suitable preparation of active compound, 1 part by weight of active compound is mixed with the stated amount of solvent, the stated amount of emulsifier is added and the concetrate is diluted with water to the desired concentration.
# (§3) Seeds of the test plants are sown in normal soil. After 24 hours, the soil is sprayed with the preparation of active compound such that the particular amount of active compound desired is applied per unit area. The concentration of active compound in the spray liquor is chosen such that the particular amount of active compound desired is applied in 1000 litres of water per hectare.
# (§4) After three weeks, the degree of damage to the plants is rated in % damage in comparison to the development of the untreated control. The figures denote: • 0%=no effect (like untreated control) • 100%=total destruction
# Lolium = experiment: Pre-emergence test/greenhouse; conditions: greenhouse, application rate 15 gai/ha, rated after three weeks, 0%=no effect, 100%=total destruction
# Experimental: as §1, §2, §3, §4
# Matricaria = experiment: Pre-emergence test/greenhouse; conditions: greenhouse, application rate 15 gai/ha, rated after three weeks, 0%=no effect, 100%=total destruction
# Experimental: as §1, §2, §3, §4
# Polygonum = experiment: Pre-emergence test/greenhouse; conditions: greenhouse, application rate 15 gai/ha, rated after three weeks, 0%=no effect, 100%=total destruction
# Experimental: as §1, §2, §3, §4
# Setaria = experiment: Pre-emergence test/greenhouse; conditions: greenhouse, application rate 15 gai/ha, rated after three weeks, 0%=no effect, 100%=total destruction
# Experimental: as §1, §2, §3, §4
# Stellaria = experiment: Pre-emergence test/greenhouse; conditions: greenhouse, application rate 15 gai/ha, rated after three weeks, 0%=no effect, 100%=total destruction
# Experimental: as §1, §2, §3, §4
# weeds = experiment: Pre-emergence test, summary for weeds
# Experimental: as §1, §2, §3, §4
# [1] = tested on: crop plants, such as, for example, maize, soyabean and wheat; experiment: Pre-emergence test, summary for crop plants
# Experimental: as §1, §2, §3, §4
# Alopecurus = experiment: Pre-emergence test/greenhouse; conditions: greenhouse, application rate 15 gai/ha, rated after three weeks, 0%=no effect, 100%=total destruction
# Experimental: as §1, §2, §3, §4
# Chenopodium = experiment: Pre-emergence test/greenhouse; conditions: greenhouse, application rate 15 gai/ha, rated after three weeks, 0%=no effect, 100%=total destruction
# Experimental: as §1, §2, §3, §4
# Solanum = experiment: Pre-emergence test/greenhouse; conditions: greenhouse, application rate 15 gai/ha, rated after three weeks, 0%=no effect, 100%=total destruction
# Experimental: as §1, §2, §3, §4
# maize = experiment: Pre-emergence test/greenhouse; conditions: greenhouse, application rate 15 gai/ha, rated after three weeks, 0%=no effect, 100%=total destruction
# Experimental: as §1, §2, §3, §4
# wheat = experiment: Pre-emergence test/greenhouse; conditions: greenhouse, application rate 15 gai/ha, rated after three weeks, 0%=no effect, 100%=total destruction
# Experimental: as §1, §2, §3, §4
# Avena fatua = experiment: Pre-emergence test/greenhouse; conditions: greenhouse, application rate 15 gai/ha, rated after three weeks, 0%=no effect, 100%=total destruction
# Experimental: as §1, §2, §3, §4
# Digitaria = experiment: Pre-emergence test/greenhouse; conditions: greenhouse, application rate 15 gai/ha, rated after three weeks, 0%=no effect, 100%=total destruction
# Experimental: as §1, §2, §3, §4
# Galium = experiment: Pre-emergence test/greenhouse; conditions: greenhouse, application rate 15 gai/ha, rated after three weeks, 0%=no effect, 100%=total destruction
# Experimental: as §1, §2, §3, §4
# Xanthium = experiment: Pre-emergence test/greenhouse; conditions: Xanthium, 504 h, greenhouse, application rate 15 gai/ha, rated after three weeks, 0%=no effect, 100%=total destruction, read-out: degree of damage to the plants, Xanthium
# Experimental: as §1, §2, §3, §4
# soybeans = experiment: Pre-emergence test/greenhouse; conditions: greenhouse, application rate 15 gai/ha, rated after three weeks, 0%=no effect, 100%=total destruction
# Experimental: as §1, §2, §3, §4
Compound,"degree of damage to the plants, Amaranthus (Amaranthus) [%]","degree of damage to the plants, Lolium (Lolium) [%]","degree of damage to the plants, Polygonum (Polygonum) [%]","degree of damage to the plants, Setaria (Setaria) [%]","degree of damage to the plants, Stellaria (Stellaria) [%]",activity against weeds compared with the known compounds (A) to (G) (weeds),tolerance by crop plants [1],"degree of damage to the plants, Chenopodium (Chenopodium) [%]","degree of damage to the plants, Solanum (Solanum) [%]","degree of damage to the plants, maize (maize) [%]","degree of damage to the plants, soybeans (soybeans) [%]",also measured
COC(=O)c1csc(C)c1S(=O)(=O)NC(=O)n1nc(OCC(F)(F)F)n(C2CC2)c1=O [Example 43],100,95,100,95,100,considerably stronger activity against weeds,tolerated well by crop plants,,,,,"degree of damage to the plants, Matricaria (Matricaria): 100%"
COC(=O)c1csc(C)c1S(=O)(=O)NC(=O)n1nc(OCC(F)(F)F)n(C)c1=O [Example 41],100,,,95,100,considerably stronger activity against weeds,tolerated well by crop plants,100,100,0,,"degree of damage to the plants, Alopecurus (Alopecurus): 100%; degree of damage to the plants, wheat (wheat): 0%"
"COC(=O)c1csc(C)c1S(=O)(=O)NC(=O)n1nc(SC)n(C)c1=O [(G), methyl 4-[[[(4,5-dihydro-4-methyl-3-methylthio-5-oxo-1H-1,2,4-triazol-1-yl)carbonyl]amino]sulfonyl]-5-methyl-3-thiophenecarboxylate, reference compound]",40,,70,70,,,,50,80,,50,"degree of damage to the plants, Avena fatua (Avena fatua): 50%; degree of damage to the plants, Digitaria (Digitaria): 50%; degree of damage to the plants, Galium (Galium): 30%; pest or weed control at 15 g/ha (Lolium; Lolium, 504 h, read-out: degree of damage to the plants, Lolium): 60%; pest or weed control at 15 g/ha (Matricaria; Matricaria, 504 h, read-out: degree of damage to the plants, Matricaria): 70%; pest or weed control at 15 g/ha (Stellaria; Stellaria, 504 h, read-out: degree of damage to the plants, Stellaria): 80%; pest or weed control at 15 g/ha (Xanthium): 40%; plant injury at 15 g/ha (maize; Zea mays, 504 h, read-out: degree of damage to the plants, maize): 0%; plant injury at 15 g/ha (wheat; Triticum aestivum, 504 h, read-out: degree of damage to the plants, wheat): 0%"
CCOc1nn(C(=O)NS(=O)(=O)c2c(C(=O)OC)csc2C)c(=O)n1CC [Example 38],100,80,,95,100,considerably stronger activity against weeds,tolerated well by crop plants,95,100,0,0,
